This note sets out measurements from PMC10969960, “Novel Anthraquinone-Based Benzenesulfonamide Derivatives and Their Analogues as Potent Human Carbonic Anhydrase Inhibitors with Antitumor Activity: Synthesis, Biological Evaluation, and In Silico Analysis” (International Journal of Molecular Sciences, 2024).

In one data set the test system is HepG2 cancer cells. Kind of data set: MTT anti-proliferative assay. In kind it is cell-based. To be noted: Homo sapiens, 24 h. (Formazan colour is commonly taken as a measure of viable cells.)
The target in another data set is T1, hCA II (Homo sapiens, UniProt P00918).
T1 construct: purchased Shanghai Jining Biological
Kind of data set: CA inhibition assay, 4-nitrophenyl acetate (4-NPA) esterase assay. To be noted: errors ±5–10% of the reported values. The data set is classed as biochemical.

The subject of a further data set is MCF-7 cancer cells. Kind of data set: MTT anti-proliferative assay. In kind it is cell-based. The settings on record: Homo sapiens, MCF7, 24 h.
The next data set relates to MDA-MB-231 cancer cells. Kind of data set: MTT anti-proliferative assay. In kind it is cell-based. To be noted: Homo sapiens, 24 h.
A further data set deals with T2, hCA IX (Homo sapiens, UniProt Q16790).
T2 construct: purchased Shanghai Jining Biological
Description: CA inhibition assay, 4-nitrophenyl acetate (4-NPA) esterase assay. To be noted: errors ±5–10% of the reported values. The data set is classed as biochemical.

Another data set deals with MCF-7 cell line. Kind of data set: Mitochondrial membrane potential assay (JC-1 staining). The data set is classed as cell-based. The settings on record: MCF-7, 20 μM, 48 h. Here is the method:
(§1) The present study investigated the involvement of mitochondria in compound-5-induced apoptosis by JC-1 staining. Red fluorescence indicates JC-1 aggregates, and green fluorescence indicates membrane potential leading to an increase in JC-1 monomers.
(§2) A mitochondrial membrane potential assay kit (Beyotime Co., Nantong, China) was used to measure the mitochondrial membrane potential with a JC-1 fluorescent probe. […] The cells were then fixed with 4% paraformaldehyde and stained with 5 mg/L JC-1 at 37 °C for 1 h. Fluorescent images were acquired using a fluorescence microscope (Olympus IX81, Olympus, Tokyo, Japan).

For the next data set, the system named is MDA-MB-231 cell line. The data set is described as above. In kind it is cell-based. The settings on record: MDA-MB-231, 20 μM, 48 h. Here is the method:
as §1, §2

In the next data set the test system is HepG2 cell line. Described as above. The data set is classed as cell-based. To be noted: HepG2, 20 μM, 48 h. On the procedure: as §1, §2
A further data set relates to MCF-7 cells. Kind of data set: Annexin V-FITC/propidium iodide analysis of apoptosis. In kind it is cell-based. To be noted: MCF-7, 24 h incubation. On the procedure: (§3) Annexin V-FITC/propidium iodide analysis of apoptosis assays were conducted to evaluate the effect of 5c on apoptosis in the MDA-MB-231, MCF-7, and HepG2 cancer cell lines. As shown in Table 3 and Figure 4, a significant increase in the percentage of apoptotic cells (containing early and late apoptosis percentages) and a notable decrease in cell viability were observed after incubation with compound 5c for 24 h.
(§4) Cells were cultured in 6-well plates and treated with the compounds for 24 h. Approximately 1 × 10^5 cells were collected and suspended in binding buffer. Apoptosis was analyzed using an AV/PI apoptosis detection kit (Beyotime Institute of Biotechnology, Shanghai, China) with a flow cytometer (BD Bioscience, Franklin Lakes, NJ, USA).

For the next data set, the system named is MDA-MB-231 cells. Described as above. The data set is classed as cell-based. The settings on record: MDA-MB-231, 24 h incubation. Here is the method:
as §3, §4

The subject of a further data set is HepG2 cells. Described as above. The data set is classed as cell-based. To be noted: HepG2, 24 h incubation. On the procedure:
as §3, §4

Setting [1] is: hypoxic (0.5% O2), read-out: IC50 HepG2 Hypo.
The mark [2] stands for this setting: normoxic, read-out: IC50 HepG2 Normo.
Where [3] appears, read: hypoxic (0.5% O2), read-out: IC50 MCF-7 Hypo.
Where [4] appears, read: normoxic, read-out: IC50 MCF-7 Normo.
The mark [5] stands for this setting: hypoxic (0.5% O2), read-out: IC50 MDA-MB-231 Hypo.
Where [6] appears, read: normoxic, read-out: IC50 MDA-MB-231 Normo.

Where two headings read alike, the source gives them in different places.

Description for HepG2 cancer cells: (§5) The median growth-inhibitory concentration (IC50) in the treated cells was compared to that of untreated controls. Cells were cultured under normoxic and hypoxic conditions to evaluate the effects of the compounds on cancer cell viability.
(§6) The cell cultures were passaged once every 2–3 days.
(§7) The 3-(4,5-dimethylthiazol-2-yl)-2,5-diphenyltetrazolium bromide (MTT) assay was used to measure the cell viability. Cells were planted into 96-well plates (4 × 10^3 cells per well) and cultured in media containing different concentrations of compounds. […] The supernatant was then discarded, and 150 μL of DMSO was added to each well, followed by gentle shaking. The absorbance value at 570 nm was measured using an EL808 microplate reader (Bio-TEK Instrument, Winooski, VT, USA).
Description for MCF-7 cancer cells: as §5, §6, §7
Description for MDA-MB-231 cancer cells: as §5, §6, §7
Description for hCA II: (§8) The inhibitory activity was evaluated by monitoring the hydrolysis of 4-nitrophenylacetate (4-NPA.).
(§9) Therefore, according to the method described by Verpoorte previously [32], 4-NPA was catalyzed into 4-nitrophenol for the determination of CA activity.
(§10) The substrate (4-NPA) was dissolved in DMSO at a substrate concentration of 1 mM. Standard hCAs II and IX (acquired from Shanghai Jining Biological) were diluted to the indicated concentrations with assay buffer and added to the cells. Different concentrations of inhibitors were added to the cells, followed by incubation at room temperature for 15 min to form complexes of inhibitors and enzymes (E-I). Then, 100 μL of E-I complex and 900 μL of substrate were successively added to a 1 mL glass cuvette and mixed immediately. […] At the same time, the non-enzymatic hydrolysis rate was determined by a blank control test. Standard hCAs II and IX were diluted to final concentrations of 1.5 ng/μL and 5 ng/μL, respectively [26, 35]. The FORECAST (x, known-y’s, known-x’s) command of Excel was used to return a predicted value through the linear regression equation to calculate the IC50 values. The experiments were repeated three times for each inhibitor concentration.
Description for hCA IX: as §8, §9, §10

One may read the IC50 as the concentration at which inhibition is half-maximal. Usually melting point stands for the temperature, or range, at which the solid turns liquid. In turn, `NS(=O)(=O)c1ccc(NC(=O)c2ccc3c(c2)C(=O)c2ccccc2C3=O)cc1` [Compound 6c, 9,10-Dioxo-N-(4-Sulfamoylphenyl)-9,10-Dihydroanthracene-2-Carboxamide] returned a melting point of 341 to 341.3 °C. For the same compound, the IC50 with HepG2 cancer cells (setting [1]) stood at 62.8 ± 5.52 µM. Further, in the data set with HepG2 cancer cells (setting [2]), the half-maximal inhibitory concentration (IC50) is 68.8 ± 4.17 µM. The midpoint of inhibition on hCA II, the IC50, lay at 0.0683 µM. Besides, the IC50 in the data set on MCF-7 cancer cells (setting [3]) stood at 47 ± 4.01 µM. Besides, the IC50 with MCF-7 cancer cells (setting [4]) was 50.4 ± 4.73 µM. For the same compound, in the data set on MDA-MB-231 cancer cells (setting [5]), the IC50 was 61.6 ± 5.13 µM. Further, the IC50 in the data set with MDA-MB-231 cancer cells (setting [6]) came to 56.3 ± 4.19 µM. The IC50 against hCA IX came out at 0.0349 µM.

As for `NS(=O)(=O)c1ccc(CCNC(=S)NC(=O)c2ccc3c(c2)C(=O)c2ccccc2C3=O)cc1` [Compound 5h, 9,10-Mioxo-N-((4-Sulfamoylphenethyl)Carbamothioyl)-9,10-Dihydroanthracene-2-Carboxamide], the melting point is 323 to 323.5 °C. The IC50 in the data set on HepG2 cancer cells (setting [1]) was determined as 80.4 ± 7.14 µM. Further, the IC50 with HepG2 cancer cells (setting [2]) came to 81.4 ± 7.03 µM. Besides, the IC50 on hCA II was found to be 0.0212 µM. In addition, the IC50 in the data set with MCF-7 cancer cells (setting [3]) was determined as 57.4 ± 5.5 µM. The IC50 with MCF-7 cancer cells (setting [4]) worked out at 63.8 ± 5.57 µM. In the data set with MDA-MB-231 cancer cells (setting [5]), the IC50 is 81.2 ± 7.34 µM. The IC50 with MDA-MB-231 cancer cells (setting [6]) was found to be 75.2 ± 6.81 µM. For the same compound, the IC50 at hCA IX stood at 0.0462 µM.

Turning to `NS(=O)(=O)c1ccc(CCNC(=O)c2ccc3c(c2)C(=O)c2ccccc2C3=O)cc1` [Compound 6h, 9,10-Dioxo-N-(4-Sulfamoylphenethyl)-9,10-Dihydroanthracene-2-Carboxamide], the IC50 is 54.3 ± 5.15 µM with HepG2 cancer cells (setting [1]); 58.2 ± 5.45 µM with HepG2 cancer cells (setting [2]); 0.0618 µM on hCA II; 30.3 ± 3.14 µM in the data set on MCF-7 cancer cells (setting [3]); 41.4 ± 2.22 µM in the data set with MCF-7 cancer cells (setting [4]); 50.4 ± 4.27 µM in the data set on MDA-MB-231 cancer cells (setting [5]). Besides, the IC50 with MDA-MB-231 cancer cells (setting [6]) was determined as 54.2 ± 4.87 µM; against hCA IX it was 0.0301 µM.

Take `NS(=O)(=O)c1ccc(NC(=S)NC(=O)c2ccc3c(c2)C(=O)c2ccccc2C3=O)cc1` [Compound 5c, 9,10-Dioxo-N-((4-Sulfamoylphenyl)Carbamothioyl)-9,10-Dihydroanthracene-2-Carboxamide]: the mitochondrial membrane potential entry in the data set on MCF-7 cell line, with MDA-MB-231 cell line and with HepG2 cell line was “reduction in mitochondrial membrane potential” in each case. Also, the IC50 with HepG2 cancer cells (setting [1]) was 69.4 ± 5.16 µM; with HepG2 cancer cells (setting [2]) it was 61.4 ± 5.75 µM; against hCA II, 0.0416 µM; in the data set with MCF-7 cancer cells (setting [3]) it was 28.1 ± 1.72 µM; with MCF-7 cancer cells (setting [4]), 34.3 ± 2.85 µM; with MDA-MB-231 cancer cells (setting [5]), 46.2 ± 3.93 µM. The values for the IC50 in the data set on MDA-MB-231 cancer cells (setting [6]) and against hCA IX were 48.1 ± 3.23 µM and 0.0406 µM, respectively. Also, the “Cell Viability (Lower Left %)” value with MCF-7 cells is 51.77 ± 2.80%; with MDA-MB-231 cells, 68.88 ± 2.30%; in the data set on HepG2 cells it was 70.12 ± 2.84%. Moreover, the “Total Apoptosis (L.R% + U.R%)” value is reported as 43.37 ± 3.92% in the data set on MCF-7 cells, 27.26 ± 1.76% with MDA-MB-231 cells and 25.06 ± 2.01% in the data set on HepG2 cells.

In turn, `CNS(=O)(=O)c1ccc(NC(=O)c2ccc3c(c2)C(=O)c2ccccc2C3=O)cc1` [Compound 6i, N-(4-(N-Methylsulfamoyl)Phenyl)-9,10-Dioxo-9,10-Dihydroanthracene-2-Carboxamide] returned a melting point of 273 to 273.8 °C. Also, the IC50 against hCA II stood at 0.172 µM. The compound further displayed an IC50 against hCA IX of 0.11 µM.

In turn, `COC(=O)c1cccc(NC(=S)NC(=O)c2ccc3c(c2)C(=O)c2ccccc2C3=O)c1` [Compound 5g, Methyl 3-(3-(9,10-Dioxo-9,10-Dihydroanthracene-2-Carbonyl)Thioureido)Benzoate] showed a melting point of 187 to 187.3 °C. In addition, the IC50 at hCA II stood at 0.238 µM. The compound also returned an IC50 on hCA IX of 0.251 µM.

Turning to `COC(=O)c1ccc(NC(=S)NC(=O)c2ccc3c(c2)C(=O)c2ccccc2C3=O)cc1` [Compound 5f, Methyl 4-(3-(9,10-Dioxo-9,10-Dihydroanthracene-2-Carbonyl)Thioureido)Benzoate], the melting point is 211 to 211.4 °C. This compound also returned an IC50 on hCA II of 0.147 µM. The IC50 on hCA IX worked out at 0.19 µM.

For `N=C(N)NS(=O)(=O)c1ccc(NC(=S)NC(=O)c2ccc3c(c2)C(=O)c2ccccc2C3=O)cc1` [Compound 5n, ((4-(N-Carbamimidoylsulfamoyl)Phenyl)Carbamothioyl)-9,10-Dioxo-9,10-Dihydroanthracene-2-Carboxamide], the melting point was in the range of 206 to 206.5 °C. The compound also returned an IC50 against hCA II of 0.0984 µM. The compound further gave an IC50 on hCA IX of 0.103 µM.

For `CC(=O)c1ccc(NC(=S)NC(=O)c2ccc3c(c2)C(=O)c2ccccc2C3=O)cc1` [Compound 5e, ((4-Acetylphenyl)Carbamothioyl)-9,10-Dioxo-9,10-Dihydroanthracene-2-Carboxamide], the melting point was 215 to 215.9 °C. On hCA II, this compound registered an IC50 of 0.132 µM. In addition, the IC50 at hCA IX was 0.275 µM.
